1 molecule from ChEMBL document CHEMBL4665893, “Scalable Synthesis, In Vitro cccDNA Reduction, and In Vivo Antihepatitis B Virus Activity of a Phosphonomethoxydeoxythreosyl Adenine Prodrug” (J Med Chem, 2020) can be followed below.

The structures appear in SMILES notation.

The nature of series [1]: Toxicity in C57BL/6 male mouse assessed as increase in neutrophils level at 60 mg/kg, po for 14 days by hematology analysis. It counts as organism-based. The note with it: in vivo, 336 h, time 14 day.
Series [2] can be described thus: Toxicity in C57BL/6 male mouse assessed as reduction in erythrocytes level at 60 mg/kg, po for 14 days by hematology analysis. The class given is organism-based. As to conditions: in vivo, 336 h, time 14 day.
Series [3] is described as follows: Toxicity in C57BL/6 female mouse assessed as reduction in lymphocytes level at 60 mg/kg, po for 14 days by hematology analysis. It counts as organism-based. As to conditions: in vivo, 336 h, time 14 day.
Series [4] is described as follows: Toxicity in C57BL/6 female mouse assessed as effect on organ weight level at 60 mg/kg, po for 14 days. It counts as organism-based. As to conditions: in vivo, 336 h, time 14 day.
Series [5] is described as follows: Toxicity in C57BL/6 mouse assessed as induction of functional deficit at 60 mg/kg, po for 14 days. The class given is organism-based. As to conditions: in vivo, 336 h, time 14 day.
Series [6] is described as follows: Genotoxicity in Salmonella typhimurium TA98 assessed as increase in number of spontaneous revertants colonies by Ames test. As to conditions: salmonella enterica subsp. enterica serovar typhimurium, 1 µM. The class given is toxicity.
Series [7] can be described thus: Toxicity in C57BL/6 mouse assessed as induction of mortality at 60 mg/kg, po for 14 days. It counts as organism-based. The note with it: in vivo, 336 h, time 14 day.
The nature of series [8]: Toxicity in C57BL/6 female mouse assessed as increase in neutrophils level at 60 mg/kg, po for 14 days by hematology analysis. It counts as organism-based. As to conditions: in vivo, 336 h, time 14 day.
Series [9] concerns Hepatitis B virus. Nature of the series: Antiviral activity against adenovirus AdH294-WT harboring wild-type HBV genotype D accession #V01460 infected in human HepG2 cells assessed as reduction in viral replicative intermediate DNA level at 370 nM incubated for 5 days by Southern blot analysis (reference value: 100%). It counts as functional. More on the design: scale not given: the % may be the effect or the level left. The note with it: time 5 day.

Series [10] can be described thus: Toxicity in C57BL/6 male mouse assessed as reduction in hematocrit level at 60 mg/kg, po for 14 days by hematology analysis. It counts as organism-based. As to conditions: in vivo, 336 h, time 14 day.
Series [11] relates to Hepatitis B virus. Nature of the series: Antiviral activity against adenovirus AdH294-WT harboring wild-type HBV genotype D accession #V01460 infected in human HepG2 cells assessed as reduction in viral replicative intermediate DNA level at 40 nM incubated for 5 days by Southern blot analysis (reference value: 100%). The class given is functional. The note with it: time 5 day. More on the design: scale not given: the % may be the effect or the level left.

A short description of series [12]: Toxicity in C57BL/6 male mouse assessed as reduction in hemoglobin level at 60 mg/kg, po for 14 days by hematology analysis. The class given is organism-based. As to conditions: in vivo, 336 h, time 14 day.
Series [13] can be described thus: Toxicity in C57BL/6 male mouse assessed as reduction in mean corpuscular volume level at 60 mg/kg, po for 14 days by hematology analysis. As to conditions: in vivo, 336 h, time 14 day. It counts as organism-based.
Series [14] deals with Hepatitis B virus. Nature of the series: Antiviral activity against ETV-resistant and adenovirus AdH294-7LR harboring wild-type HBV infected in human HepG2 cells assessed as viral replicative intermediate DNA level at 370 nM incubated for 5 days by Southern blot analysis (reference value: 100%). It counts as functional. As to conditions: time 5 day.
The test system of series [15] is Hepatitis B virus. Description: Antiviral activity against HBV infected in human HepDE19 cells assessed as reduction in HBV cccDNA incubated for 9 days by qPCR analysis. The class given is functional, organism-based. The note with it: HepDE19, 216 h.
Series [16] deals with Hepatitis B virus. Description: Antiviral activity against adenovirus AdH294-WT harboring wild-type HBV genotype D accession #V01460 infected in human HepG2 cells assessed as reduction in viral replicative intermediate DNA level at 1100 nM incubated for 5 days by Southern blot analysis (reference value: 100%). The class given is functional. Details: scale not given: the % may be the effect or the level left. The note with it: time 5 day.

Series [17] deals with Hepatitis B virus. Description: Antiviral activity against ETV-resistant and adenovirus AdH294-7LR harboring wild-type HBV infected in human HepG2 cells assessed as viral replicative intermediate DNA level at 120 nM incubated for 5 days by Southern blot analysis (reference value: 100%). The class given is functional. The note with it: time 5 day.
The nature of series [18]: Toxicity in human HepDE19 cells assessed as reduction in beta-actin level incubated for 9 days by qPCR analysis. The class given is cell-based. The note with it: time 9 day.

With `CC(C)CCOC(=O)C[C@H](NP(=O)(CO[C@H]1CO[C@@H](n2cnc3c(N)ncnc32)C1)Oc1ccccc1)C(=O)OCCC(C)C` (mixture of isomers), the Activity result in series [1] is on record as “Toxic”; in series [2] it was “Toxic”; in series [3] it was “Non-Toxic”; in [4] it was “Non-Toxic”; in [5] it was “Non-Toxic”; in series [6] it was “Non-Toxic”. Further, the Activity result was “Non-Toxic” in series [7]; “Non-Toxic” in [8]; 1.8% in [9]; “Toxic” in [10]; 12.9% in [11]; “Toxic” in series [12]. Further, the Activity result is recorded as “Toxic” in [13], 20.2% in series [14], 0.7% in series [16] and 38.5% in series [17]. In addition, in [15], the IC50 stood at 6 nM. Further, in series [15] (time 9 day), the IC90 came out at 70 nM. The half-maximal cytotoxic concentration (CC50) at 216 h in series [18] came out at 230 nM.
